According to patent US5281616A, “Porphyrin and phthalocyanine antiviral compositions” (priority 1992, dated 1994):
Where “and” joins values, the source holds several entries; their conditions need not be identical. Identical values can stand only once. Counter-ions that a name gives are not always drawn. Like-named read-outs stand apart in the source and are kept apart here.

Experiments:
[1] = target: HIV-1 reverse transcriptase (Human immunodeficiency virus type 1 group M subtype B, UniProt P04585); assay: Inhibition of purified HIV-1 reverse transcriptase (cell free); format: biochemical
Protocol: Methodology for Testing Antiviral Drugs for Inhibition of HIV-1 Reverse Transcriptase
Cells and viruses are cultured as described above. […] 12,431-439 (1973). Cocktail, template, compound to be tested and reverse transcriptase are mixed together on ice, then incubated for one hour at 37° C.. The DNA synthesized is acid precipitated and the radioactivity measured, as described by Eriksson, B., et al., Antimicrobial Agents and Chemotherapy 31, 600-604 ([…]).

HIV-1 (strain LAV-1) = assay: Inhibition of HIV replication in PBM cells (supernatant RT activity); format: cell-based
[2] = test system: herpes simplex virus type 2; assay: Plaque assay in Vero cells, HSV type 2; format: cell-based, HSV-2
Protocol: (§1) Methodology for Testing Antiviral Drugs for Inhibition of Replication of HSV-1 and HSV-2
(§2) Compounds are tested for inhibition of herpes simplex virus type 1 and herpes simplex virus type 2 using the method of Schinazi, et al., Antimicrobial Agents and Chemotherapy 22, 499-507 (1982). This is a plaque assay using Vero cells (African green monkey cells) infected with HSV.

[3] = test system: herpes simplex virus type 1; assay: Plaque assay in Vero cells, HSV type 1; format: cell-based, HSV-1
Protocol: as §1, §2

herpes simplex viruses = details: upon exposure to light; concentrations as low as; cited from earlier work
influenza A = details: upon exposure to light; concentrations as low as; cited from earlier work
[4] = test system: reverse transcriptase of avian myeloblastosis virus; details: 10^-4 M; cited from earlier work
[5] = test system: reverse transcriptase of Rauscher murine leukemia virus; details: cited from earlier work
[6] = Human immunodeficiency virus 1, PBMC, 120 h, human PBM cells, RT activity in supernatant five days after infection, read-out: EC50, inhibition of HIV replication in PBM cells
[7] = human PBM cells, RT activity in supernatant five days after infection, read-out: EC50, inhibition of HIV replication in PBM cells
[8] = purified enzyme, one hour at 37° C., read-out: EC50, inhibition of HIV reverse transcriptase
[9] = Human alphaherpesvirus 2, Dark, Vero cells plaque assay, read-out: EC50 HSV type 2 Dark
[10] = Human alphaherpesvirus 2, Light, Vero cells plaque assay, read-out: EC50 HSV type 2 Light
[11] = Human alphaherpesvirus 1, Light, Vero cells plaque assay, read-out: EC50 HSV type 1 Light
[12] = Human alphaherpesvirus 1, Dark, Vero cells plaque assay, read-out: EC50 HSV type 1 Dark
[13] = Human immunodeficiency virus 1, PBMC, 120 h, read-out: EC50, inhibition of HIV replication in PBM cells, human PBM cells, RT activity in supernatant five days after infection
[14] = read-out: EC50, inhibition of HIV reverse transcriptase, purified enzyme, one hour at 37° C.

C[n+]1cccc(-c2c3nc(c(-c4ccccc4)c4ccc([nH]4)c(-c4ccccc4)c4nc(c(-c5ccc[n+](C)c5)c5ccc2[nH]5)C=C4)C=C3)c1 [CP-3, 5,10-Diphenyl-15,20-di(N-methyl-3-pyridyl)-porphyrin Cl-]
EC50 [1]: 41.6 µM
EC50 (HIV-1 (strain LAV-1); [6]): 2.28 µM

C[n+]1ccc(-c2c3nc(c(-c4ccccc4)c4ccc([nH]4)c(-c4ccccc4)c4nc(c(-c5cc[n+](C)cc5)c5ccc2[nH]5)C=C4)C=C3)cc1 [CP-4, 5,10-Diphenyl-15,20-di(N-methyl-4-pyridyl)-porphyrin Cl-]
EC50 [1]: 26.9 µM
Difference in inhibition of HIV, dark versus light (HIV-1 (strain LAV-1)): No significant differences in activity
EC50 (HIV-1 (strain LAV-1); Human immunodeficiency virus 1, PBMC, 120 h, read-out: EC50, inhibition of HIV replication in PBM cells): 0.38 µM
EC50 (HIV-1 (strain LAV-1); Human immunodeficiency virus 1, PBMC, read-out: EC50, inhibition of HIV replication in PBM cells): 0.43 µM

[Co+2].c1ccc2c(c1)-c1nc-2nc2[n-]c(nc3nc(nc4[n-]c(n1)c1ccccc41)-c1ccccc1-3)c1ccccc21 [CoPHTH, Cobalt phthalocyanine]
EC50 (HIV-1 (strain LAV-1); [7]): 100 µM

C[n+]1ccc(-c2c3nc(c(-c4cc[n+](C)cc4)c4ccc([nH]4)c(-c4ccccc4)c4nc(c(-c5ccccc5)c5ccc2[nH]5)C=C4)C=C3)cc1.[Cu+2] [Cu-CP4, Cu(II)-5,10-diphenyl-15,20-di(N-methyl-4-pyridyl)-porphyrin]
EC50 [1, 8]: 57.4 µM
EC50 (HIV-1 (strain LAV-1); [7]): 4.76 µM and 5.78 µM

[Cu+2].c1ccc2c(c1)-c1nc-2nc2[n-]c(nc3nc(nc4[n-]c(n1)c1ccccc41)-c1ccccc1-3)c1ccccc21 [CuPHTH, Copper phthalocyanine]
EC50 (HIV-1 (strain LAV-1); [7]): 46.9 µM

C[n+]1ccc(-c2c3nc(c(-c4cc[n+](C)cc4)c4ccc([nH]4)c(-c4cc[n+](C)cc4)c4nc(c(-c5cc[n+](C)cc5)c5ccc2[nH]5)C=C4)C=C3)cc1.Cl.[Fe+3] [FeTMPyP, Fe(III)-tetra-(N-methyl-4-pyridyl)-porphyrin chloride]
EC50 (HIV-1 (strain LAV-1); [7]): 78.1 µM

[Cl][Fe]1[n]2c3ccc2C(c2ccccc2)=C2C=CC(=N2)C(c2ccccc2)=c2ccc([n]21)=C(c1ccccc1)C1=NC(=C3c2ccccc2)C=C1 [FeTPPCl, Fe(III)-tetraphenylporphyrin chloride]
EC50 (HIV-1 (strain LAV-1); [7]): ~100 µM

C[n+]1ccc(-c2c3nc(c(-c4ccccc4)c4ccc([nH]4)c(-c4ccccc4)c4nc(c(-c5cc[n+](C)cc5)c5ccc2[nH]5)C=C4)C=C3)cc1.[Ni+2] [Ni-CP4, Ni(II)-5,10-diphenyl-15,20-di(N-methyl-4-pyridyl)-porphyrin]
EC50 [1, 8]: 24.8 µM
EC50 (HIV-1 (strain LAV-1); [7]): 3.44 µM and 6.54 µM

C=CC1=C(C)c2cc3[nH]c(cc4nc(cc5[nH]c(cc1n2)c(C)c5CCC(=O)O)C(CCC(=O)O)=C4C)c(C)c3C=C [PPIX, Protoporphyrin, disodium salt]
EC50 [1]: > 100 µM
EC50 [2, 9]: 10 µM
EC50 [2, 10]: 0.05 µM
EC50 [3, 11]: < 0.01 µM

C=CC1=C(C)c2cc3[nH]c(cc4nc(cc5[nH]c(cc1n2)c(C)c5C=C)C(C)=C4CCC(=O)OC)c(CCC(=O)OC)c3C [PPIXDME, Protoporphyrin IX dimethyl ester]
EC50 [1]: > 100 µM
EC50 [2, 9]: > 10 µM
EC50 [2, 10]: > 10 µM
EC50 [3, 12]: > 10 µM
EC50 [3, 11]: 10 µM

Cl[Si]1(Cl)n2c3c4ccccc4c2N=C2N=C(N=c4c5ccccc5c(n41)=NC1=NC(=N3)c3ccccc31)c1ccccc12 [SiPHTHCl2, Silicon phthalocyanine dichloride]
EC50 (HIV-1 (strain LAV-1); [13]): ≤ 1 µM

C[n+]1ccc(-c2c3nc(c(-c4cc[n+](C)cc4)c4ccc([nH]4)c(-c4cc[n+](C)cc4)c4nc(c(-c5cc[n+](C)cc5)c5ccc2[nH]5)C=C4)C=C3)cc1 [TMPyP, Tetra-(N-methyl-4-pyridyl)-porphyrin tosylate salt]
EC50 ([2]; Human alphaherpesvirus 2, Vero, read-out: EC50 HSV type 2 Dark): > 10 µM
EC50 ([2]; Human alphaherpesvirus 2, Vero, read-out: EC50 HSV type 2 Light): > 1 µM
EC50 ([3]; Human alphaherpesvirus 1, Vero, read-out: EC50 HSV type 1 Dark): 0.04 µM
EC50 ([3]; Human alphaherpesvirus 1, Vero, read-out: EC50 HSV type 1 Light): 0.03 µM

C[n+]1ccc(-c2c3nc(c(-c4ccccc4)c4ccc([nH]4)c(-c4cc[n+](C)cc4)c4nc(c(-c5ccccc5)c5ccc2[nH]5)C=C4)C=C3)cc1 [TP-3, 5,15-Diphenyl-10,20-di(N-methyl-4-pyridyl)-porphyrin Cl-]
EC50 [1, 14]: 7.3 µM

C[n+]1cccc(-c2c3nc(c(-c4ccccc4)c4ccc([nH]4)c(-c4ccc[n+](C)c4)c4nc(c(-c5ccccc5)c5ccc2[nH]5)C=C4)C=C3)c1 [TP-4, 5,15-Diphenyl-10,20-di(N-methyl-3-pyridyl)-porphyrin Cl-]
EC50 [1, 14]: 6.9 µM
EC50 (HIV-1 (strain LAV-1); [6]): < 1 µM
EC50 (HIV-1 (strain LAV-1); [7]): 0.76 µM

Cc1cccc(-c2c3nc(c(-c4cccc(C)c4)c4ccc([nH]4)c(-c4cccc(C)c4)c4nc(c(-c5cccc(C)c5)c5ccc2[nH]5)C=C4)C=C3)c1 [TPP(3-Me)4, Tetra-(3-methylphenyl)-porphyrin]
EC50 [2, 10]: > 10 µM
EC50 [3, 12]: > 10 µM
EC50 [3, 11]: > 10 µM

O=C(O)c1ccc(-c2c3nc(c(-c4ccc(C(=O)O)cc4)c4ccc([nH]4)c(-c4ccc(C(=O)O)cc4)c4nc(c(-c5ccc(C(=O)O)cc5)c5ccc2[nH]5)C=C4)C=C3)cc1 [TPP(4-CO2 H)4, Tetra-(4-carboxyphenyl)-porphyrin]
EC50 [1]: 1.1 µM
EC50 [2, 9]: > 10 µM
EC50 [2, 10]: > 10 µM
EC50 [3, 12]: 2.5 µM
EC50 [3, 11]: 10 µM

Clc1ccc(-c2c3nc(c(-c4ccc(Cl)cc4)c4ccc([nH]4)c(-c4ccc(Cl)cc4)c4nc(c(-c5ccc(Cl)cc5)c5ccc2[nH]5)C=C4)C=C3)cc1 [TPP(4-Cl)4, Tetra-(4-chlorophenyl)-porphyrin]
EC50 (HIV-1 (strain LAV-1); [6]): ~100 µM

Cc1ccc(-c2c3nc(c(-c4ccc(C)cc4)c4ccc([nH]4)c(-c4ccc(C)cc4)c4nc(c(-c5ccc(C)cc5)c5ccc2[nH]5)C=C4)C=C3)cc1 [TPP(4-Me)4, Tetra-(4-methylphenyl)-porphyrin]
EC50 [1]: > 100 µM
EC50 [2, 9]: 3.95 µM
EC50 [2, 10]: > 10 µM
EC50 [3, 12]: > 10 µM
EC50 [3, 11]: 1 µM

Oc1ccc(-c2c3nc(c(-c4ccc(O)cc4)c4ccc([nH]4)c(-c4ccc(O)cc4)c4nc(c(-c5ccc(O)cc5)c5ccc2[nH]5)C=C4)C=C3)cc1 [TPP(4-OH)4, Tetra-(4-hydroxyphenyl)-porphyrin]
EC50 [2, 9]: > 10 µM
EC50 [2, 10]: > 10 µM
EC50 [3, 12]: > 10 µM
EC50 [3, 11]: > 10 µM
EC50 (HIV-1 (strain LAV-1); [6]): 0.6 µM
EC50 (HIV-1 (strain LAV-1); [7]): 0.7 µM

C1=Cc2nc1c(-c1ccccc1)c1ccc([nH]1)c(-c1ccccc1)c1nc(c(-c3ccccc3)c3ccc([nH]3)c2-c2ccccc2)C=C1 [TPP, Meso-tetraphenylporphine]
EC50 [1]: > 100 µM
EC50 [2, 9]: > 10 µM
EC50 [2, 10]: > 10 µM
EC50 [3, 12]: > 10 µM
EC50 [3, 11]: 10 µM
EC50 (HIV-1 (strain LAV-1); [13]): 13.7 µM
EC50 (HIV-1 (strain LAV-1); read-out: EC50, inhibition of HIV replication in PBM cells, human PBM cells, RT activity in supernatant five days after infection): > 10 µM

CC1=C(CCC(=O)O)c2cc3[nH]c(cc4nc(cc5[nH]c(cc1n2)c(C)c5C(C)O)C(C)=C4C(C)O)c(C)c3CCC(=O)O (stereo not drawn) [hematoporphyrin]
Concentration inhibiting in vitro replication of herpes simplex viruses (herpes simplex viruses): 0.5 µg/mL
Concentration inhibiting in vitro replication of influenza A (influenza A): 0.5 µg/mL

Copper phthalocyanine 3,4'4'',4'''-tetrasulfonic acid [(CuPHTHS4)(3,4,4,4)]
EC50 (HIV-1 (strain LAV-1); [7]): ≤ 1 µM

Copper phthalocyanine tetrasulfonic acid tetra-sodium salt [CuPHTHS4]
EC50 (HIV-1 (strain LAV-1); [7]): 22.4 µM

Copper-4,4',4'',4'''-tetra-aza-29H, 31H-phthalocyanine [CuPHTHN4]
EC50 (HIV-1 (strain LAV-1); [7]): 100 µM

Fe(III)-mu-oxo-dimer of tetraphenyl-porphyrin [μ-oxo-TPP]
EC50 (HIV-1 (strain LAV-1); [7]): > 100 µM

Fe(III)-tetra-(4-methylphenyl)-porphyrin chloride [(FeTPP)(4-Cl)4]
EC50 (HIV-1 (strain LAV-1); [7]): > 100 µM

Hemin, bovine, (chloro protoporphyrin IX Fe(III)) [FePPIXCl]
EC50 [1, 8]: 20.5 µM
Inhibition of reverse transcriptase activity (in words) [4]: not
Concentration inhibiting reverse transcriptase activity [5]: 10^-4 M
EC50 (HIV-1 (strain LAV-1); [7]): 49.3 µM

Nickel phthalocyanine tetrasulfonic acid [NiPHTHS4]
EC50 (HIV-1 (strain LAV-1); [7]): 1.06 µM

Reactive Blue 15
EC50 (HIV-1 (strain LAV-1); [7]): ≤ 1 µM
